The EC50 is the concentration needed to bring the measured effect to its halfway point.

Structures are written as SMILES.

Here are results for 8 molecules from ChEMBL document CHEMBL1208782, “Synthesis and pharmacological validation of a novel series of non-steroidal FXR agonists” (Bioorg Med Chem Lett, 2010).

Experiment [1] deals with T1, Bile acid receptor (Homo sapiens, UniProt Q96RI1).
T1 sequence (Q96RI1 whole entry): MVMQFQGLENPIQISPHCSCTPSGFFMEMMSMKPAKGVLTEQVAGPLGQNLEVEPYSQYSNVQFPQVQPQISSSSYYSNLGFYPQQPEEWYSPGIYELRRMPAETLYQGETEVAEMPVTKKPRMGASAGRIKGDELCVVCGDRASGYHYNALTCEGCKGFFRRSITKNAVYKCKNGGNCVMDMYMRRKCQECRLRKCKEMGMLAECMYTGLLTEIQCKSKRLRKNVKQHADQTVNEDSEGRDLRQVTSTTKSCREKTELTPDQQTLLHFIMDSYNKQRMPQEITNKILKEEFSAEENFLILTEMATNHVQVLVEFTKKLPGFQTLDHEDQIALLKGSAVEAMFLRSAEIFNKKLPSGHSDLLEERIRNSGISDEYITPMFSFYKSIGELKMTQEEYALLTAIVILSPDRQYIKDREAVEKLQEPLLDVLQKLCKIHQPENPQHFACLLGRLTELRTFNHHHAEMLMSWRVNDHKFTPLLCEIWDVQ
The experiment can be described thus: Agonist activity at human full length FXR transfected in HEK293 cells coexpressing pTRexDest/pGL2promotor assessed as luciferase activity by direct reporter cellular assay. It is filed as functional, cell-based. As to conditions: read-out: EC50.

In experiment [2] the target is T2, Bile acid receptor (Homo sapiens) (UniProt Q96RI1).
T2 sequence (whole entry): T1 sequence (Q96RI1 whole entry)
In words: Agonist activity at human full length FXR transfected in HEK293 cells coexpressing pTRexDest/pGL2promotor assessed as luciferase activity by direct reporter cellular assay relative to GW-4064. It is filed as functional, cell-based.

The target in experiment [3] is T2, Bile acid receptor (Homo sapiens). In words: Agonist activity at human […] FXR LBD expressed in HEK293 cells coexpressing GAL4-DNA bindig domain and pFRluc by mammalian one-hybrid assay relative to GW-4064. Type of experiment: functional, cell-based.
Experiment [4] deals with T1, Bile acid receptor. In words: Agonist activity at human GST-fused FXR LBD assessed as cofactor peptide interaction with receptor ligand binding domain by FRET assay.
The target in experiment [5] is T1, Bile acid receptor. In words: Agonist activity at human […] FXR LBD expressed in HEK293 cells coexpressing GAL4-DNA bindig domain and pFRluc by mammalian one-hybrid assay. As to conditions: read-out: EC50. It is filed as functional, cell-based.
Experiment [6] has as its target T2, Bile acid receptor (Homo sapiens). The experiment can be described thus: Agonist activity at human GST-fused FXR LBD assessed as cofactor peptide interaction with receptor ligand binding domain by FRET assay relative to GW-4064.

Regarding `CC(Oc1ccc(C(=O)O)cc1)c1ccc(OCc2c(-c3c(Cl)cccc3Cl)noc2C2CC2)nc1C(F)(F)F` (stereo not drawn), the figures for the EC50 in experiment [1], in experiment [4] and in experiment [5] were 611 nM, 352 nM and 189 nM, respectively. The Efficacy amounted to 33% in experiment [2], 70% in experiment [3] and 89% in experiment [6].
Consider `CC(C)c1onc(-c2c(Cl)cccc2Cl)c1COc1ccc(N(C)Cc2cccc(C(=O)O)c2)c(C(F)(F)F)n1`, for which the half-maximal effective concentration (EC50) in experiment [1] turned out to be 6 nM; in experiment [4] it was 12 nM; in experiment [5], 80 nM. For the same molecule, the values for the Efficacy in experiment [2], in experiment [3] and in experiment [6] were 58%, 89% and 102%, respectively.
As to `CC(C)c1onc(-c2c(Cl)cccc2Cl)c1COc1ccc(N(C)Cc2cccc(C(=O)NS(C)(=O)=O)c2)c(C(F)(F)F)n1`, the EC50 in experiment [1] stood at 20 nM; in experiment [4], 48 nM; in experiment [5] it was 279 nM. The Efficacy worked out at 72% in experiment [2], 59% in experiment [3] and 110% in experiment [6].
Turning to `CC(C)c1onc(-c2c(Cl)cccc2Cl)c1COc1ccc(N(C)C(=O)c2cccc(C(=O)O)c2)c(C(F)(F)F)n1`, the values for the EC50 in experiment [1], in experiment [4] and in experiment [5] were 537 nM, 433 nM and 571 nM, respectively. Moreover, the Efficacy in experiment [2] is 55%; in experiment [3], 35%; in experiment [6], 110%.
Take `CC(C)c1onc(-c2c(Cl)cccc2Cl)c1COc1ccc(NC(=O)c2ccc(C(=O)O)cc2)c(C(F)(F)F)n1`: the concentration for a half-maximal effect (EC50) in experiment [1] came to 385 nM; in experiment [4] it was 452 nM; in experiment [5], 474 nM. The Efficacy was 48% in experiment [2], 21% in experiment [3] and 109% in experiment [6].
For the molecule `O=C(O)c1cccc(OCc2ccc(OCc3c(-c4c(Cl)cccc4Cl)noc3C3CC3)nc2C(F)(F)F)c1`, the concentration giving a half-maximal response (EC50) in experiment [1] is 33 nM; in experiment [4], 43 nM; in experiment [5] it was 151 nM. For the same molecule, the Efficacy was 41% in experiment [2], 62% in experiment [3] and 98% in experiment [6].
With `CC(C)c1onc(-c2c(Cl)cccc2Cl)c1COc1ccc(N(C)Cc2ccc(C(=O)NS(C)(=O)=O)cc2)c(C(F)(F)F)n1`, the EC50 in experiment [1] was determined as 11 nM; in experiment [4] it was 40 nM; in experiment [5], 221 nM. Moreover, the Efficacy amounted to 67% in experiment [2], 64% in experiment [3] and 105% in experiment [6].
`Cc1nc(OCc2c(-c3c(Cl)cccc3Cl)noc2C(C)C)ccc1N(C)C(=O)c1ccc(C(=O)O)cc1`: the EC50 came to 1190 nM in experiment [1], 365 nM in experiment [4] and 2030 nM in experiment [5]. In addition, the Efficacy in experiment [2] is 49%; in experiment [3] it was 21%; in experiment [6], 95%.
